{"source": "patent US12239661B2", "about": "“Methods and compositions for treating undesired implanted tissue filler” (priority 2019, dated 2025)", "experiment": "X-ray CT of volume, mean density and 3D shape of Radiesse nodules and injected hyperosmotic solutions (Example 4)", "assay_type": "in vivo, Pig (Sus scrofa domesticus)", "description": "Pigs are injected by SC route with Radiesse® filler without Lidocaine (Test item). One hour after the Radiesse® filler injection, selected different hyperosmotic solutions are injected by SC route into the dermal filler nodules. For two Radiesse® filler nodules per pig, no additional product is injected; these nodules are used as controls.\nThe evolution over time of the volume and mean density of the Radiesse® filler nodules with injection of the different solutions are assessed by CT-scanner at selected time points: on Day 0, at about 1 hour (h) and 15 minutes (min), 2 h and 4 h after the Radiesse® filler injection and solution injection, and then, on Day 1 (about 24 h after Radiesse® filler injection), Day 3, Day 7 and Day 15.\nOn Day 0, 4 pigs received ten (10) SC injections of Radiesse® dermal filler (P20WK-EE-01) of about 500 μl/nodule in the flank (ventral area) at T=0. One hour after Radiesse® dermal filler injections (T=1 h), about 1.5 ml of different hyperosmotic solutions (P20WK-EE-02 to P20WK-EE-05) were each injected into 8 Radiesse® filler nodules. Two Radiesse® filler nodules per animal were not injected with hyperosmotic solution and served as controls.\nA total of 7 CT-scans were performed at 1 h 15±10 min, 2 h±15 min, 4 h±20 min, 1 day (24 h±1 h), 3, 7 and 15 days after injection of the dermal filler, as described in FIG. 9A.\nOn Day 0 (TO), 10 SC injections of test item P20WK-EE-01 (Radiesse® dermal filler) were performed in the ventral area (five nodules on each flank of the ventral area). For each SC nodule, a theoretical volume of 500 μL was administered. One hour (±5 min) after injection of dermal filler, SC injections of the different solutions (prepared on Day −3) were performed into 8 nodules of dermal filler. For each injection of solution, a theoretical volume of 1.5 mL was administered (see, e.g., injection scheme in Table 11).\nIn order to measure the volume, the mean density and to visualize the 3D shape of the dermal filler SC injected (in presence or absence of different hyperosmotic solutions), in vivo CT-scans were performed on Day 0: 1 h 15 (±10 min), 2 h (±15 min) and 4 h (±20 min), on Day 1 (24 h±1 h), Day 3, Day 7 and Day 15.\nThe CT acquisitions are analyzed with the software Avizo version 9.2.0. The objective of this analysis was to assess the dispersion over time of the Radiesse® dermal filler injected by SC route after injection of different hyperosmotic solutions.\nTo achieve this goal, the evolution of these parameters is observed over time: • the volume of each nodule (Radiesse® dermal filler and solution separately), • the mean density of each nodule (Radiesse® dermal filler and solution separately), • the 3D shape of each nodule by visualization of the 3D model of each nodule at each time point (Radiesse® dermal filler with or without solution separately). Segmentation:\nAn image segmentation is performed on each CT acquisition on the […] reconstruction. At first, a manual pre-segmentation is performed around each nodule in order to roughly isolate the voxels corresponding to Radiesse® dermal filler and hyperosmotic solutions and defined a Region of Interest (ROI). Secondly, an automatic segmentation is applied on the ROI previously defined using a global grey level thresholding procedure. […] Similarly, all the voxels having a grey level between these HU values are selected in a ROI and corresponds to the pure solution or solution containing some dispersed Radiesse® dermal filler (see, FIG. 10).\nThen, a 3D model of these selected voxels (see, FIG. 11) is obtained allowing the calculation of the total volume (in mm^3) and the mean density (in HU) of the two defined compartments of each nodule of Pure Radiesse® dermal filler and of each solution containing or not containing dispersed Radiesse® dermal filler.\nThe volume (in mm^3) of the ROI of Radiesse® dermal filler and the solutions corresponding to each nodule and the mean density (in HU) of each nodule are calculated at each time point.", "key": {"[1]": {"conditions": "individual nodules, [+250, +∞] HU, listed as Radiesse + Fructose"}, "[2]": {"conditions": "mean of 8 nodules, [+250, +∞] HU"}}, "note": "Values joined by “and” are separate entries in the source; they are usually repeats but may differ in a detail not shown here. Equal entries are not always repeated. Marks after values point to notes of the source that are not given here.", "data": [{"smiles": "O=C(CO)[C@@H](O)[C@H](O)[C@H](O)CO", "note": "[sol 11, Fructose]", "values": [{"measurement": "Change in Volume as percent of Injected Volume, Day 14/15", "setting": "Example 4 (Day 15), mean", "value": 1930, "unit": "%"}, {"measurement": "Change in Volume as percent of Injected Volume, Day 0 + 1 h 15", "setting": "Example 4, mean", "value": "1581* percent"}, {"measurement": "Change in Volume as percent of Injected Volume, Day 0 + 2 h", "setting": "Example 4, mean", "value": 1610, "unit": "%"}, {"measurement": "Change in Volume as percent of Injected Volume, Day 0 + 4 h", "setting": "Example 4, mean", "value": 1871, "unit": "%"}, {"measurement": "Change in Volume as percent of Injected Volume, Day 1", "setting": "Example 4, mean", "value": 2285, "unit": "%"}, {"measurement": "Change in Volume as percent of Injected Volume, Day 3", "setting": "Example 4, mean", "value": 1959, "unit": "%"}, {"measurement": "Change in Volume as percent of Injected Volume, Day 7", "setting": "Example 4, mean", "value": 2002, "unit": "%"}, {"measurement": "average of the mean density of solution nodules, T=1 h 15", "setting": "between −100 HU and 250 HU", "value": "58.6±6.2", "unit": "HU"}, {"measurement": "average of the mean density of solution nodules, T=4 h", "setting": "between −100 HU and 250 HU", "value": "−1.0±7.7", "unit": "HU"}, {"measurement": "mean volume of solution with potential dispersed Radiesse, Day 15", "setting": "between −100 HU and 250 HU", "value": "883.9±269.9", "unit": "mm^3"}, {"measurement": "mean volume of solution with potential dispersed Radiesse, T+4 h", "setting": "between −100 HU and 250 HU", "value": "7000.8±1389.9", "unit": "mm^3"}, {"measurement": "variation of solution volume on Day 15 compared to the injected volume on T=1 h", "setting": "between −100 HU and 250 HU", "value": "−42.8", "unit": "%"}, {"measurement": "variation of the average of the mean density of solutions, Day 15 compared to T=1 h 15", "setting": "between −100 HU and 250 HU", "value": 34.7, "unit": "%"}, {"measurement": "Nodule volume, Day 0 + 1 h 15", "setting": "[1]", "value": "799.1 mm^3 and 845.1 mm^3 and 739.4 mm^3 and 852.5 mm^3 and 760.4 mm^3 and 837.5 mm^3 and 793.0 mm^3 and 710.6 mm^3"}, {"measurement": "Nodule volume, Day 0 + 2 h", "setting": "[1]", "value": "795.9 mm^3 and 856.3 mm^3 and 750.5 mm^3 and 863.0 mm^3 and 770.1 mm^3 and 898.7 mm^3 and 808.3 mm^3 and 712.1 mm^3"}, {"measurement": "Nodule volume, Day 0 + 4 h", "setting": "[1]", "value": "1039.3 mm^3 and 957.8 mm^3 and 861.1 mm^3 and 985.4 mm^3 and 902.9 mm^3 and 1039.4 mm^3 and 912.1 mm^3 and 796.2 mm^3"}, {"measurement": "Nodule volume, Day 1", "setting": "[1]", "value": "1168.5 mm^3 and 1120.2 mm^3 and 1122.3 mm^3 and 1226.3 mm^3 and 1085.5 mm^3 and 1165.0 mm^3 and 1153.8 mm^3 and 1115.5 mm^3"}, {"measurement": "Nodule volume, Day 3", "setting": "[1]", "value": "1043.6 mm^3 and 1039.7 mm^3 and 961.0 mm^3 and 1053.3 mm^3 and 969.6 mm^3 and 992.2 mm^3 and 891.2 mm^3 and 897.7 mm^3"}, {"measurement": "Nodule volume, Day 7", "setting": "[1]", "value": "1041.9 mm^3 and 1040.7 mm^3 and 1239.0 mm^3 and 1200.9 mm^3 and 879.3 mm^3 and 953.1 mm^3 and 833.5 mm^3 and 838.3 mm^3"}, {"measurement": "Nodule volume, Day 15", "setting": "[1]", "value": "997.7 mm^3 (2×) and 997.2 mm^3 and 944.9 mm^3 and 1054.8 mm^3 and 923.5 mm^3 and 912.9 mm^3 and 905.4 mm^3"}, {"measurement": "Mean nodule volume, Day 0 + 1 h 15", "setting": "[2]", "value": 792.2, "unit": "mm^3"}, {"measurement": "Mean nodule volume, Day 0 + 2 h", "setting": "[2]", "value": 806.9, "unit": "mm^3"}, {"measurement": "Mean nodule volume, Day 0 + 4 h", "setting": "[2]", "value": 936.8, "unit": "mm^3"}, {"measurement": "Mean nodule volume, Day 1", "setting": "[2]", "value": 1144.6, "unit": "mm^3"}, {"measurement": "Mean nodule volume, Day 3", "setting": "[2]", "value": 981.0, "unit": "mm^3"}, {"measurement": "Mean nodule volume, Day 7", "setting": "[2]", "value": 1003.3, "unit": "mm^3"}, {"measurement": "Mean nodule volume, Day 15", "setting": "[2]", "value": "966.8±52.9", "unit": "mm^3"}, {"measurement": "Mean nodule volume, Day 15", "setting": "mean of 8 nodules, [+250, +∞] HU, listed as Radiesse + Fructose", "value": 966.8, "unit": "mm^3"}, {"measurement": "average of the mean density of nodules, Day 1", "setting": "pure Radiesse >250 HU", "value": "424.6±31.6", "unit": "HU"}, {"measurement": "average of the mean density of nodules, Day 3", "setting": "pure Radiesse >250 HU", "value": "505.0±72.2", "unit": "HU"}, {"measurement": "average of the mean density of nodules, Day 15", "setting": "pure Radiesse >250 HU", "value": "512.9±57.4", "unit": "HU"}]}]}
